Test results reported in ChEMBL document CHEMBL3600310 (J Med Chem, 2015).
The source made the active and inactive calls. The rule behind the calls is not given here.

What was measured:
[1] = molecular target: T1, DNA topoisomerase 1 (Homo sapiens) (UniProt P11387); assay: Inhibition of Top1 (unknown origin)-mediated pBR322 DNA cleavage using ethidium bromide staining at 200 uM after 15 mins by electrophoresis analysis
T1 sequence (whole entry): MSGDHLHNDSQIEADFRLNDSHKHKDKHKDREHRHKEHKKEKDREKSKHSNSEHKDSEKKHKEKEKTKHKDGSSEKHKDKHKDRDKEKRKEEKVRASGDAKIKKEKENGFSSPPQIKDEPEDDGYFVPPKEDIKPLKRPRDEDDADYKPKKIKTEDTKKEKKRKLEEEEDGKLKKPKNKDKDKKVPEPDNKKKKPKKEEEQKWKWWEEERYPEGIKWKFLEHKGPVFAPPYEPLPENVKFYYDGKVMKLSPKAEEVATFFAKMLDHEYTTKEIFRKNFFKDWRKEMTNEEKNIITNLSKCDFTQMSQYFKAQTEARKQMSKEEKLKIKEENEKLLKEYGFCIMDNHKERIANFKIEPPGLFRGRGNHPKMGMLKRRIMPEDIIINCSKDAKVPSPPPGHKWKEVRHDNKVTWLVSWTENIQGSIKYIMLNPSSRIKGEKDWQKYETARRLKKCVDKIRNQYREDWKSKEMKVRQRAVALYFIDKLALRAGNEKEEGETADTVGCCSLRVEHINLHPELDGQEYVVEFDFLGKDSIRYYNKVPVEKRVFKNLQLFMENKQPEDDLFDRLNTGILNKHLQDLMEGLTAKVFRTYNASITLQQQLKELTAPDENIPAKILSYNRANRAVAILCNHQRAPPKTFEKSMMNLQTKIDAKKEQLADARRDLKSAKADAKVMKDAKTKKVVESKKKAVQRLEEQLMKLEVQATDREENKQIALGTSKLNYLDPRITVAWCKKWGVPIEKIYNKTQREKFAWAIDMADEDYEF

[2] = molecular target: T1, DNA topoisomerase 1 (Homo sapiens); assay: Inhibition of Top1 (unknown origin)-mediated pBR322 DNA cleavage using ethidium bromide staining at 100 uM after 15 mins by electrophoresis analysis
[3] = molecular target: T1, DNA topoisomerase 1 (Homo sapiens); assay: Inhibition of Top1 (unknown origin)-mediated pBR322 DNA cleavage using ethidium bromide staining at 50 uM after 15 mins by electrophoresis analysis
[4] = molecular target: DNA topoisomerase 2-alpha (Homo sapiens) (UniProt P11388); assay: Inhibition of Top2alpha (unknown origin)-mediated pBR322 DNA cleavage using ethidium bromide staining at 100 uM after 30 mins by electrophoresis analysis
DNA topoisomerase 2-alpha (Homo sapiens), sequence (P11388 whole entry): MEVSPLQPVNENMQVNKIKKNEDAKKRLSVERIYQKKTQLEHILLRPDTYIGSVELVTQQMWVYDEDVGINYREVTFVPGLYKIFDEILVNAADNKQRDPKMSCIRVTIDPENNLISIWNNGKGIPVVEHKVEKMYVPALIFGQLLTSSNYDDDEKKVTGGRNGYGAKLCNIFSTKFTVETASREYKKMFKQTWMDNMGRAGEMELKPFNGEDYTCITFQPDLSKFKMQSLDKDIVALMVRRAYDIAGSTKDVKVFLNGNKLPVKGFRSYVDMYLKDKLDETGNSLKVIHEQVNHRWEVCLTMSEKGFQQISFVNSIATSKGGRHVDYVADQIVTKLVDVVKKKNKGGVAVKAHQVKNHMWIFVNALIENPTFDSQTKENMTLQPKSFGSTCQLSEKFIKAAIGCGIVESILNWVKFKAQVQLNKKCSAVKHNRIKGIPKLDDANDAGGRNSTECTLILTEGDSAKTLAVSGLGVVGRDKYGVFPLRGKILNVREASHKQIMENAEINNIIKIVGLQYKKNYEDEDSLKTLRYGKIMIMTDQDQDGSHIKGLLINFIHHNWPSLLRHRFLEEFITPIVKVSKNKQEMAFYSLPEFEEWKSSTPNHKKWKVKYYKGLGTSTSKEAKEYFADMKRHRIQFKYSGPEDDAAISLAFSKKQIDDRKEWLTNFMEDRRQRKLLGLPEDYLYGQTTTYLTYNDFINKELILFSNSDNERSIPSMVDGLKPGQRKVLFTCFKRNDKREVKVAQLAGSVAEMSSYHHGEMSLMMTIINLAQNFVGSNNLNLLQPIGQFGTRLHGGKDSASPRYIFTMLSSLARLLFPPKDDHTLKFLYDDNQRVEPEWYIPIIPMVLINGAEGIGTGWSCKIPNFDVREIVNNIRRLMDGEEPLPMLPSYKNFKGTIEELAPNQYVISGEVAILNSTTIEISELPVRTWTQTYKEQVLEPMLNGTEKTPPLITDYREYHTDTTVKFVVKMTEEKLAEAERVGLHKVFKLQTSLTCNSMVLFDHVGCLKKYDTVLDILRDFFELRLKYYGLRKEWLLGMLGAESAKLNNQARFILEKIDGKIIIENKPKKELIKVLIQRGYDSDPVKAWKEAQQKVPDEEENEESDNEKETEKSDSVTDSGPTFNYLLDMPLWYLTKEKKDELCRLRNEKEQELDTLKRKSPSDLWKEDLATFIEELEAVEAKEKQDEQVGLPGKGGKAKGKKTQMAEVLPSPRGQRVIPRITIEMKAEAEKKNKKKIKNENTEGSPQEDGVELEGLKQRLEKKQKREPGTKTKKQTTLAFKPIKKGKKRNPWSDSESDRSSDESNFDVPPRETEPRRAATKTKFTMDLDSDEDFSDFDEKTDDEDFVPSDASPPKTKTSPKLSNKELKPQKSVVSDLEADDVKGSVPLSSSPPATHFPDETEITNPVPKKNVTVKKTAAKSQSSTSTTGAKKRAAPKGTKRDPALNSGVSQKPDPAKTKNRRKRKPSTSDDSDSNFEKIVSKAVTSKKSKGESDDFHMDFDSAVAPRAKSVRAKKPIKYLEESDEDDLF

[5] = molecular target: Tubulin (Homo sapiens) (UniProt P68371+Q9H4B7+P0DPH7+P68366+Q13509+Q71U36+P04350+Q3ZCM7+P07437+P68363+Q9BQE3+Q6PEY2+Q13885+Q9BVA1+Q9BUF5); assay: Inhibition of brain tubulin (unknown origin) polymerization at 5 uM measured up to 15 to 30 mins
[6] = molecular target: Tubulin; assay: Inhibition of brain tubulin (unknown origin) polymerization measured up to 15 to 30 mins; set-up: species or system Homo sapiens
[7] = test system: HCT-116; assay: Antitumor activity against human HCT116 cells xenografted in BALB/C mouse assessed as tumor growth inhibition at 2 mg/kg, ip for 5 days; type: functional, organism-based
[8] = test system: A549; assay: Cytotoxicity against human A549 cells after 72 hrs by MTT assay; type: functional, cell-based; conditions: A549, 72 h
[9] = test system: HCT-116; assay: Cytotoxicity against human HCT116 cells after 72 hrs by MTT assay; type: functional, cell-based; conditions: HCT-116, 72 h
[10] = test system: MDA-MB-435; assay: Cytotoxicity against human MDA-MB-435 cells after 72 hrs by MTT assay; type: functional, cell-based; conditions: MDA-MB-435, 72 h
[11] = test system: NCI-H446; assay: Cytotoxicity against human NCI-H446 cells after 72 hrs by MTT assay; type: functional, cell-based; conditions: NCI-H446, 72 h
[12] = Cytotoxicity against human SW579 cells after 72 hrs by MTT assay; type: functional, cell-based; conditions: SW579, 72 h
[13] = Cytotoxicity against human SKHEP1 cells after 72 hrs by MTT assay; type: functional, cell-based; conditions: SK-HEP1, 72 h
[14] = Cytotoxicity against human MV-3 cells after 72 hrs by MTT assay; type: functional, cell-based; conditions: MV-3, 72 h
[15] = test system: K562; assay: Cytotoxicity against human K562 cells after 72 hrs by MTT assay; type: functional, cell-based; conditions: K562, 72 h
[16] = Cytotoxicity against human Bel7404 cells after 72 hrs by MTT assay; type: functional, cell-based; conditions: BEL-7404, 72 h
[17] = test system: PC-3; assay: cells; conditions: Homo sapiens, PC-3, 72 h
Description: Cytotoxicity against human PC3 cells after 72 hrs by MTT assay

[18] = test system: A549; assay: Antitumor activity against human A549 cells xenografted in BALB/C mouse assessed as tumor growth inhibition at 2 mg/kg, ip for 5 days; type: functional, organism-based
[19] = test system: Mus musculus; assay: Toxicity in human A549 cells xenografted BALB/C mouse assessed as mortality at 2 mg/kg, ip for 5 days; type: organism-based; conditions: in vivo, 120 h
[20] = test system: Mus musculus; assay: Toxicity in human A549 cells xenografted BALB/C mouse assessed as change in body weight at 2 mg/kg, ip for 5 days; type: organism-based; conditions: in vivo, 120 h
[21] = test system: Mus musculus; assay: Toxicity in human A549 cells xenografted BALB/C mouse assessed as change in body weight at 0.5 mg/kg, ip for 5 days; type: organism-based; conditions: in vivo, 120 h
[22] = test system: A549; assay: Cell cycle arrest in human A549 cells assessed as accumulation at G2/M phase using propidium iodide staining at 5 uM after 36 hrs by flow cytometry analysis; type: functional
[23] = test system: A549; assay: Induction of apoptosis in human A549 cells assessed as change in cell morphology at 5 uM after 36 hrs by light microscope analysis; type: functional, cell-based
[24] = test system: A549; assay: Induction of apoptosis in human A549 cells assessed as apoptotic cells at 5 uM after 48 hrs by flow cytometry analysis; type: functional
[25] = test system: A549; assay: Cell cycle arrest in human A549 cells assessed as accumulation at G2/M phase using propidium iodide staining at 5 uM after 12 hrs by flow cytometry analysis; type: functional, cell-based

| Compound | inhibition [1] | inhibition [4] | inhibition [5] [%] | IC50 [6] [nM] | growth inhibition (GI) [7] | IC50 [8] [nM] | IC50 [9] [nM] | IC50 [10] [nM] | IC50 [11] [nM] | IC50 [12] [nM] | IC50 [13] [nM] | IC50 [14] [nM] | IC50 [15] [nM] | IC50 [16] [nM] | IC50 [17] [nM] | growth inhibition (GI) [18] | Activity [19] | Activity [20] | Activity [22] [%] | Activity [23] | other results |
| --- | --- | --- | --- | --- | --- | --- | --- | --- | --- | --- | --- | --- | --- | --- | --- | --- | --- | --- | --- | --- | --- |
| O=C1c2cc(Cl)ccc2SC2c3[nH]c4ccc(O)cc4c3CCN12 (configuration not stated) | Active | Active | 63 | 4500 | Active | 20 | < 3 | < 3 | > 200000 | 6900 | 2100 | 1300 | < 3 | < 3 | 370 | – | – | – | – | – | inhibition [2]: Active; inhibition [3]: Active |
| Cc1ccc2c(c1)OC1c3[nH]c4ccc(O)cc4c3CCN1C2=O (configuration not stated) | – | – | – | – | – | 6500 | < 3 | < 3 | – | – | – | – | – | – | – | Active | Non-toxic | Non-toxic | – | – | – |
| CC[C@@]1(O)C(=O)OCc2c1cc1n(c2=O)Cc2cc3c(CN(C)C)c(O)ccc3nc2-1 [TOPOTECAN] | – | – | – | – | – | 7400 | 700 | 400 | – | – | – | – | – | – | – | – | – | – | – | – | Activity [21]: Toxic |
| O=C1c2cc(Cl)ccc2OC2c3[nH]c4ccc(O)cc4c3CCN12 (configuration not stated) | Active | inactive | 48 | 5300 | Active | 5200 | < 3 | 60 | > 200000 | 5560 | 1800 | 1100 | < 3 | < 3 | 400 | Active | Non-toxic | Non-toxic | 63.7 | Active | Activity [24]: 6.7%; Activity [25]: Active |
| O=C1c2ccccc2SC2c3[nH]c4ccc(O)cc4c3CCN12 (configuration not stated) | Active | inactive | – | – | Active | 50 | 40 | < 3 | – | – | – | – | – | – | – | Active | Non-toxic | Non-toxic | 68.2 | Active | Activity [24]: 6%; Activity [25]: Active |
